Patent publication US12447156B2, “Treating progressive familial intrahepatic cholestasis (PFIC) with IBAT inhibitors” (ALBIREO AB, priority 2020, dated 2025)
Marks after values point to notes of the source that are not given here.

Tested on: patients with PFIC3 or PFIC6
Assay: PEDFIC 2: efficacy and safety in patients with PFIC3 or PFIC6
Format: in vivo, human
Details: for Common TEAEs by preferred term: ALT increased / Common TEAEs by preferred term: INR increased / Common TEAEs by preferred term: Total bilirubin increased / Common TEAEs by preferred term: Vitamin D deficiency / Mild TEAEs / Moderate TEAEs / Serious TEAEs / Severe TEAEs / TEAEs / TEAEs leading to discontinuation: 120 μg/kg once daily
Excerpt: In PEDFIC 2, eligible patients are enrolled into one of 2 cohorts, based on the following criteria: Cohort 1 includes pediatric patients with PFIC1 or PFIC2 from PEDFIC 1 and cohort 2 includes patients of any age with any PFIC type; these are newly enrolled patients. In both cohorts, eligible patients are those with genetically confirmed PFIC, elevated serum bile acids (≥100 μmol/L), and significant pruritus (i.e., itching or scratching score of ≥2 per patient/caregiver report using the PRUCISION instrument). PEDFIC 2 includes a 72-week treatment period in which all patients receive oral, once-daily odevixibat 120 μg/kg.
Change from baseline in serum bile acids, pruritus, hepatic biochemical parameters, growth, and sleep; serum bile acid response (i.e., serum bile acids reduced ≥70% or levels ≤70 μmol/L); proportion of positive pruritus assessments (PPAs) at the patient level (i.e., pruritus score ≤1 or a ≥1-point drop from baseline); and treatment-emergent adverse events (TEAEs). Patient pruritus and sleep were evaluated twice daily by caregivers using the validated PRUCISION scale; pruritus responses range from 0 to 4, with higher scores indicating worse symptom.

[1] = 6 patients with PFIC3 or PFIC6, 120 μg/kg
[2] = patient with PFIC6, N=1, oral once-daily 120 μg/kg
[3] = patients with PFIC3, N=4, oral once-daily 120 μg/kg

CCCCC1(CCCC)CN(c2ccccc2)c2cc(SC)c(OCC(=O)N[C@@H](C(=O)N[C@@H](CC)C(=O)O)c3ccc(O)cc3)cc2S(=O)(=O)N1 [Odevixibat, 1,1-dioxo-3,3-dibutyl-5-phenyl-7-methylthio-8-(N-{(R)-α-[N-((S)-1-carboxypropyl)carbamoyl]-4-hydroxybenzyl}carbamoylmethoxy)-2,3,4,5-tetrahydro-1,2,5-benzothiadiazepine] was tested. Which “patients who met criteria for serum bile acid response at the last assessment” value (2 with PFIC3 and 1 with PFIC6, of 6 patients) did it give?
Its value is “Three”.

And the “reductions in pruritus score from baseline to last assessment” value [1]?
Its value is “all but 1 patient (PFIC3) had reductions in pruritus score”.

And the “reductions in serum bile acids from baseline to last assessment” value [1]?
The value was “all patients with PFIC3 or PFIC6 had reductions in serum bile acids”.

What about the “Common TEAEs by preferred term: ALT increased” value (from here on “Common TEAEs … ALT increased”) (Patient 1 (PFIC3)) of the same compound?
Its value is 0.

What about the “Common TEAEs by preferred term: INR increased” value (“Common TEAEs … INR increased” for short) (Patient 1 (PFIC3)) of the same compound?
Its value is 0.

And the “Common TEAEs by preferred term: Total bilirubin increased” value (Patient 1 (PFIC3))?
The value was 0.

What about the “Common TEAEs by preferred term: Vitamin D deficiency” value (“Common TEAEs … Vitamin D deficiency” for short) (Patient 1 (PFIC3)) of the same compound?
The value was 0.

What about the “Mild TEAEs” value (Patient 1 (PFIC3)) of the same compound?
Its value is 0.

What about the “Moderate TEAEs” value (Patient 1 (PFIC3)) of the same compound?
Its value is 0.

What about the “Serious TEAEs” value (Patient 1 (PFIC3)) of the same compound?
The value was 0.

And the “Severe TEAEs” value (Patient 1 (PFIC3))?
The value was 0.

And the TEAEs (Patient 1 (PFIC3))?
The TEAEs was 0.

What about the “TEAEs leading to discontinuation” value (Patient 1 (PFIC3)) of the same compound?
Its value is 0.

And the “Common TEAEs … ALT increased” value (Patient 2 (PFIC3))?
Its value is 0.

What about the “Common TEAEs … INR increased” value (Patient 2 (PFIC3)) of the same compound?
Its value is 1.

What about the “Common TEAEs by preferred term: Total bilirubin increased” value (Patient 2 (PFIC3)) of the same compound?
Its value is 1.

What about the “Common TEAEs … Vitamin D deficiency” value (Patient 2 (PFIC3)) of the same compound?
The value was 0.

And the “Mild TEAEs” value (Patient 2 (PFIC3))?
Its value is 1.

What about the “Moderate TEAEs” value (Patient 2 (PFIC3)) of the same compound?
Its value is 2.

And the “Serious TEAEs” value (Patient 2 (PFIC3))?
The value was 0.

What about the “Severe TEAEs” value (Patient 2 (PFIC3)) of the same compound?
The value was 0.

What about the TEAEs (Patient 2 (PFIC3)) of the same compound?
Its TEAEs is 3.

What about the “TEAEs leading to discontinuation” value (Patient 2 (PFIC3)) of the same compound?
The value was 0.

What about the “Common TEAEs … ALT increased” value (Patient 3 (PFIC3)) of the same compound?
Its value is 1.

And the “Common TEAEs … INR increased” value (Patient 3 (PFIC3))?
Its value is 1.

What about the “Common TEAEs by preferred term: Total bilirubin increased” value (Patient 3 (PFIC3)) of the same compound?
Its value is 2.

And the “Common TEAEs … Vitamin D deficiency” value (Patient 3 (PFIC3))?
The value was 0.

And the “Mild TEAEs” value (Patient 3 (PFIC3))?
Its value is 0.

And the “Moderate TEAEs” value (Patient 3 (PFIC3))?
Its value is 4.

And the “Serious TEAEs” value (Patient 3 (PFIC3))?
The value was 0.

What about the “Severe TEAEs” value (Patient 3 (PFIC3)) of the same compound?
The value was 1.

And the TEAEs (Patient 3 (PFIC3))?
The TEAEs was 5.

And the “TEAEs leading to discontinuation” value (Patient 3 (PFIC3))?
The value was 0.

And the “Common TEAEs … ALT increased” value (Patient 4 (PFIC3))?
Its value is 1.

What about the “Common TEAEs … INR increased” value (Patient 4 (PFIC3)) of the same compound?
Its value is 0.

What about the “Common TEAEs by preferred term: Total bilirubin increased” value (Patient 4 (PFIC3)) of the same compound?
Its value is 0.

And the “Common TEAEs … Vitamin D deficiency” value (Patient 4 (PFIC3))?
The value was 1.

And the “Mild TEAEs” value (Patient 4 (PFIC3))?
The value was 2.

And the “Moderate TEAEs” value (Patient 4 (PFIC3))?
The value was 0.

And the “Serious TEAEs” value (Patient 4 (PFIC3))?
The value was 0.

And the “Severe TEAEs” value (Patient 4 (PFIC3))?
The value was 3.

What about the TEAEs (Patient 4 (PFIC3)) of the same compound?
Its TEAEs is 5.

What about the “TEAEs leading to discontinuation” value (Patient 4 (PFIC3)) of the same compound?
The value was 0.

And the “Common TEAEs … ALT increased” value (Patient 5 (PFIC3))?
Its value is 0.

And the “Common TEAEs … INR increased” value (Patient 5 (PFIC3))?
The value was 0.

What about the “Common TEAEs by preferred term: Total bilirubin increased” value (Patient 5 (PFIC3)) of the same compound?
The value was 0.

What about the “Common TEAEs … Vitamin D deficiency” value (Patient 5 (PFIC3)) of the same compound?
Its value is 2.

And the “Mild TEAEs” value (Patient 5 (PFIC3))?
Its value is 3.

What about the “Moderate TEAEs” value (Patient 5 (PFIC3)) of the same compound?
The value was 0.

What about the “Serious TEAEs” value (Patient 5 (PFIC3)) of the same compound?
The value was 0.

What about the “Severe TEAEs” value (Patient 5 (PFIC3)) of the same compound?
The value was 0.

And the TEAEs (Patient 5 (PFIC3))?
Its TEAEs is 3.

And the “TEAEs leading to discontinuation” value (Patient 5 (PFIC3))?
The value was 0.

And the “Common TEAEs … ALT increased” value (Patient 6 (PFIC6))?
Its value is 0.

What about the “Common TEAEs … INR increased” value (Patient 6 (PFIC6)) of the same compound?
The value was 0.

And the “Common TEAEs by preferred term: Total bilirubin increased” value (Patient 6 (PFIC6))?
The value was 0.

And the “Common TEAEs … Vitamin D deficiency” value (Patient 6 (PFIC6))?
Its value is 0.

What about the “Mild TEAEs” value (Patient 6 (PFIC6)) of the same compound?
The value was 1.

What about the “Moderate TEAEs” value (Patient 6 (PFIC6)) of the same compound?
Its value is 0.

What about the “Serious TEAEs” value (Patient 6 (PFIC6)) of the same compound?
Its value is 0.

And the “Severe TEAEs” value (Patient 6 (PFIC6))?
Its value is 0.

And the TEAEs (Patient 6 (PFIC6))?
Its TEAEs is 1.

And the “TEAEs leading to discontinuation” value (Patient 6 (PFIC6))?
Its value is 0.

And the “% of days needing help falling asleep, change from baseline to weeks 34-36” value [2]?
Its value is −21^a %.

What about the “% of days needing soothing, change from baseline to weeks 34-36” value [2] of the same compound?
The value was −36^a %.

And the “% of days sleeping with caregiver, change from baseline to weeks 34-36” value [2]?
Its value is 0^a %.

What about the “% of days with bleeding associated with scratching, change from baseline to weeks 34-36” value [2] of the same compound?
Its value is 0^a %.

What about the “Height Z score, change from baseline to week 36” value [2] of the same compound?
Its value is 0.1.

What about the “Pruritus score, change from baseline to weeks 34-36” value [2] of the same compound?
Its value is −1.8^a.

What about the “Serum ALT, change from baseline to week 36” value [2] of the same compound?
Its value is 89 U/L.

And the “Serum bile acids, change from baseline to week 36” value [2]?
Its value is -78 µmol/L.

What about the “Total bilirubin, change from baseline to week 36” value [2] of the same compound?
Its value is -83 µmol/L.

What about the “Weight Z score, change from baseline to week 36” value [2] of the same compound?
Its value is 0.5.

And the “% of days needing help falling asleep, mean (SE) change from baseline to weeks 34-36” value [3]?
Its value is −29 (24)^a %.

What about the “% of days needing soothing, mean (SE) change from baseline to weeks 34-36” value [3] of the same compound?
Its value is −28 (21)^a %.

And the “% of days sleeping with caregiver, mean (SE) change from baseline to weeks 34-36” value [3]?
Its value is −27 (22)^a %.

And the “% of days with bleeding associated with scratching, mean (SE) change from baseline to weeks 34-36” value [3]?
Its value is 6 (6)^a %.

What about the “Height Z score, mean (SE) change from baseline to week 36” value [3] of the same compound?
Its value is 0.2 (0.2).

And the “Pruritus score, mean (SE) change from baseline to weeks 34-36” value [3]?
Its value is −1.6 (0.4)^a.

What about the “Serum ALT, mean (SE) change from baseline to week 36” value [3] of the same compound?
Its value is 67 (21) U/L.

And the “Serum bile acids, mean (SE) change from baseline to week 36” value [3]?
Its value is −91 (37) μmol/L.

And the “Total bilirubin, mean (SE) change from baseline to week 36” value [3]?
The value was 18 (13) μmol/L.

What about the “Weight Z score, mean (SE) change from baseline to week 36” value [3] of the same compound?
The value was 0.1 (0.4).

What about the “patients who experienced any TEAE” value (patients with PFIC3 or PFIC6) of the same compound?
Its value is 5 of 6.

What about the “serious TEAEs, TEAEs leading to discontinuation, or deaths” value (patients with PFIC3 or PFIC6) of the same compound?
The value was “no serious TEAEs, TEAEs leading to discontinuation, or deaths”.

And the tolerability (patients with PFIC3 or PFIC6, up to the data cutoff in PEDFIC 2)?
The tolerability was “generally well tolerated”.

And the “positive pruritus assessments (PPAs)” value (weeks 0-22, 1 additional patient with PFIC3)?
Its value is 99%.

What about the “positive pruritus assessments (PPAs)” value (weeks 0-36, 5 patients with available data (4 with PFIC3, 1 with PFIC6)) of the same compound?
The value was at least 85%.
